Measurements published in patent publication US12138320B2, “Composition and methods for tumor imaging and treatment” (The University of Chicago, priority 2020, dated 2024).

Tests used:
[1] = tested on: PC3 prostate cancer xenografts; assay: PET/CT imaging and ex vivo biodistribution in mice bearing PC3 xenografts; parameters: species or system mouse; settings: ex vivo quantitation, 3 hours after injection, prostate cancer model
Description: FIGS. 12A-12C: In vivo prostate cancer tumor images with fluorine-18-labeled 2-isopropylphenyl-(4-(2-fluorethoxy)phenethyl)carbamate ([^18F]JW199) tracer. FIG. 12A is a representative whole-body positron emission tomography-computed tomography (PET-CT) image of a PC3 prostate cancer cell tumor-bearing mouse and tumor boundary image in inset. Image is representative of n=4 mice. B. FIG. 12B is a graph showing the ex vivo biodistribution of [^18F]JW199 in mice bearing PC3 xenografts. Quantification of radiotracer signal in the indicated tissues 3 hours after injection of 150 microcurie (μCi) of radiotracer. Data are means percentage injected dose per cubic centimeter (% ID/cc)±standard deviation (SD) (n=4 male mice). FIG. 12C is a graph of the glyceraldehyde-3-phosphate dehydrogenase (GAPDH)-normalized neutral cholesterol ester hydrolase 1 (NCEH1) protein levels in the edge (red) and inside (blue) areas of tumor xenografts, ***p<0.001 as determined by Student's t-test. […]
In vivo microPET/CT imaging: All imaging was performed by the Integrated Small Animal Imaging Research Resource (iSAIRR) at the University of Chicago (Chicago, Illinois, United States of America) on a β-Cube and X-Cube (Molecubes NV, Ghent, Belgium). […] Respiration rate and body temperature of the animal were constantly monitored during the entire scanning period with the p-Cube and X-Cube onboard monitoring system. […]

[2] = tested on: other detected serine hydrolase targets; assay: Family-wide gel-based profiling of serine hydrolases in MDA-MB231 and PC3 cells (selectivity); format: cell-based, human; settings: live cells
Protocol: Proteome Preparation: Human PC3 and MDA-MB231 cells were grown in Roswell Park Memorial Institute (RPMI) medium and Dulbecco's Modified Eagle Medium (DMEM), respectively, supplemented with 10% fetal bovine serum (FBS) and 2 mM L-glutamine, and cultured in a humidified 5% CO2 incubator at 37° C. Cells were washed twice with phosphate buffered saline (PBS, pH 7.5), collected by scraping, resuspended in 0.2 ml PBS, sonicated, and fractionated via centrifugation (100,000×g, 45 min) into a pellet (containing membrane proteins) and supernatant (containing soluble proteins). […] Protein concentrations were determined using a Bradford protein assay kit (Bio-Rad, Hercules, California, United States of America)). […]
Gel-based Activity Profiling: Cell lysates were treated with 1 μM fluorophosphonate-rhodamine (FP-rho) for 30 min at room temperature (50 μL total reaction volume). Reactions were quenched with one volume of standard 4× sodium dodecyl sulfate/polyacrylamide gel electrophoresis (SDS/PAGE) reducing sample buffer, resolved on 10% acrylamide SDS/PAGE gels, and visualized in-gel with a fluorescence scanner sold under the tradename CHEMIDOC™ MP (Bio-Rad, Hercules, California, United States of America). Densitometric quantification of band intensities were used to calculate the percent inhibition via JW199. […]

[3] = tested on: MDA-MB231 human breast cancer xenografts; assay: PET/CT imaging and ex vivo biodistribution in mice bearing MDA-MB231 xenografts; parameters: species or system mouse
Protocol: In vivo microPET/CT imaging: All imaging was performed by the Integrated Small Animal Imaging Research Resource (iSAIRR) at the University of Chicago (Chicago, Illinois, United States of America) on a β-Cube and X-Cube (Molecubes NV, Ghent, Belgium). Athymic nude mice (males and females, aged 6 to 8 weeks; HSD strain, Harlan-Envigo, Indianapolis, Indiana, United States of America) were anesthetized via inhalation with 1.5-2% isoflurane and injected with approximately 150 μCi (5.55 Megabecquerel (MBq)) of [^18F]JW199 in 150 μL of physiologic saline through the lateral tail vein, followed by awake incubation for 1 hour and 45 minutes. MicroCT images were acquired using the general purpose protocol, with energy of 50 KeV and a tube current of 100 μA. Respiration rate and body temperature of the animal were constantly monitored during the entire scanning period with the p-Cube and X-Cube onboard monitoring system. […]
Dynamic reconstruction was performed using a three-dimensional OSEM algorithm with 400 μm isometric voxel size. […] 3D regions of interest (ROIs) were drawn and standardized uptake values (SUVs) and percent injected dose per cubic centimeter of tissue (% ID/cc) were calculated for each ROI and time point. % ID/cc was calculated as a ratio of tissue radioactivity concentration (mCi/g) at time of scan to total injected activity (millicurie (mCi)) at time of scan. […]

CC(C)c1ccccc1OC(=O)NCCc1ccc(OCC[18F])cc1 [[^18F]JW199, fluorine-18-labeled 2-isopropylphenyl-(4-(2-fluoroethoxy)phenethyl)carbamate]
total radioactivity in bulk tumor tissue relative to surrounding muscle [1]: higher total radioactivity
selectivity over other detected serine hydrolase targets [2]: greater than 1,000 fold
radiotracer accumulation in tumor ([3]; 150 μCi i.v., dynamic PET/CT): radiotracer accumulation in breast tumor xenograft cells
total radioactivity in bulk tumor tissue relative to surrounding muscle ([3]; ex vivo quantitation, 3 hours after injection, breast cancer model): higher total radioactivity
